Data taken from the NIST ThermoML archive (doi:10.1021/acs.jced.8b00199).

Assay: molar heat capacity at constant pressure
Conditions: Liquid, Flow calorimetry

CCCCCCCCCC(=O)OCC [ethyl decanoate]
Conditions | molar heat capacity at constant pressure [J/K/mol]
294 K, 100 kPa | 400.39
294 K, 3080 kPa | 399.98
294 K, 6090 kPa | 399.53
294 K, 8970 kPa | 399.07
294 K, 12120 kPa | 398.72
294.1 K, 14870 kPa | 398.28
294.1 K, 17910 kPa | 397.82
294.1 K, 21090 kPa | 397.38
294.1 K, 24040 kPa | 396.93
304 K, 130 kPa | 406.09
304 K, 3030 kPa | 405.62
304 K, 6160 kPa | 405.12
304 K, 9030 kPa | 404.66
304 K, 11950 kPa | 404.19
304 K, 15090 kPa | 403.69
304 K, 17870 kPa | 403.23
304.1 K, 21100 kPa | 402.75
304.1 K, 24050 kPa | 402.24
313.9 K, 110 kPa | 411.45
313.9 K, 2920 kPa | 410.92
313.9 K, 5990 kPa | 410.45
313.9 K, 9080 kPa | 409.95
314 K, 11910 kPa | 409.43
314 K, 15030 kPa | 408.93
314 K, 18090 kPa | 408.41
314 K, 21080 kPa | 407.89
314 K, 24110 kPa | 407.34
323.8 K, 150 kPa | 416.54
323.9 K, 3040 kPa | 416.03
323.9 K, 5930 kPa | 415.53
323.9 K, 9070 kPa | 415.03
323.9 K, 11980 kPa | 414.54
323.9 K, 15050 kPa | 414.03
324 K, 18050 kPa | 413.54
324 K, 21210 kPa | 413.06
324 K, 24030 kPa | 412.57
333.8 K, 120 kPa | 423.19
333.8 K, 2960 kPa | 422.7
333.8 K, 5990 kPa | 422.28
333.8 K, 9040 kPa | 421.77
333.9 K, 12030 kPa | 421.17
333.9 K, 14940 kPa | 420.66
333.9 K, 18050 kPa | 420.15
333.9 K, 21100 kPa | 419.65
334 K, 24050 kPa | 419.11
343.7 K, 150 kPa | 429.52
343.7 K, 3000 kPa | 429.02
343.7 K, 6190 kPa | 428.5
343.8 K, 8990 kPa | 427.96
343.8 K, 12100 kPa | 427.46
343.8 K, 14910 kPa | 426.93
343.8 K, 17990 kPa | 426.4
343.8 K, 21010 kPa | 426.07
343.9 K, 23970 kPa | 425.54
353.7 K, 110 kPa | 435.96
353.7 K, 2980 kPa | 435.41
353.7 K, 6020 kPa | 434.91
353.7 K, 8990 kPa | 434.4
353.8 K, 11920 kPa | 433.87
353.8 K, 14940 kPa | 433.36
353.8 K, 17960 kPa | 432.85
353.8 K, 21070 kPa | 432.33
353.9 K, 23980 kPa | 431.81

CCCCCCCC(=O)OCC [ethyl octanoate]
Conditions | molar heat capacity at constant pressure [J/K/mol]
294 K, 160 kPa | 339.59
294 K, 3020 kPa | 339.17
294.1 K, 5960 kPa | 338.74
294.1 K, 9040 kPa | 338.3
294.1 K, 12020 kPa | 337.9
294.1 K, 14980 kPa | 337.54
294.1 K, 17990 kPa | 337.13
294.1 K, 21060 kPa | 336.71
294.1 K, 23980 kPa | 336.29
303.7 K, 2940 kPa | 344.3
303.7 K, 6070 kPa | 343.83
303.8 K, 8950 kPa | 343.35
303.8 K, 12020 kPa | 342.9
303.9 K, 15040 kPa | 342.5
304 K, 18130 kPa | 342.09
304 K, 21050 kPa | 341.67
304 K, 24030 kPa | 341.18
305.6 K, 160 kPa | 344.76
314.3 K, 170 kPa | 350.6
314.3 K, 3140 kPa | 350.17
314.3 K, 6130 kPa | 349.71
314.4 K, 9110 kPa | 349.29
314.4 K, 12100 kPa | 348.89
314.4 K, 15030 kPa | 348.53
314.5 K, 18310 kPa | 348.11
314.5 K, 20910 kPa | 347.72
314.5 K, 24100 kPa | 347.25
323.8 K, 130 kPa | 355.82
323.8 K, 3030 kPa | 355.4
323.8 K, 6160 kPa | 354.96
323.8 K, 21030 kPa | 352.89
323.9 K, 9300 kPa | 354.54
323.9 K, 12120 kPa | 354.09
323.9 K, 15230 kPa | 353.71
323.9 K, 18110 kPa | 353.28
323.9 K, 24100 kPa | 352.47
333.7 K, 110 kPa | 360.49
333.7 K, 3060 kPa | 360.06
333.7 K, 6010 kPa | 359.65
333.8 K, 9110 kPa | 359.17
333.8 K, 11920 kPa | 358.75
333.8 K, 15070 kPa | 358.37
333.8 K, 18080 kPa | 357.9
333.9 K, 21120 kPa | 357.47
333.9 K, 24000 kPa | 357.06
343.5 K, 130 kPa | 365.32
343.5 K, 2950 kPa | 364.93
343.5 K, 6040 kPa | 364.48
343.5 K, 8990 kPa | 364.02
343.6 K, 12070 kPa | 363.6
343.7 K, 15050 kPa | 363.15
343.8 K, 18070 kPa | 362.7
343.8 K, 21010 kPa | 362.3
343.8 K, 24090 kPa | 361.84
353.6 K, 130 kPa | 370.06
353.6 K, 3030 kPa | 369.66
353.6 K, 6060 kPa | 369.24
353.7 K, 8990 kPa | 368.8
353.7 K, 11900 kPa | 368.4
353.8 K, 15040 kPa | 367.99
353.9 K, 18020 kPa | 367.57
354 K, 20960 kPa | 367.14
354 K, 24110 kPa | 366.72
